Literature values as cited in article PMC6443429 (Molecular pharmaceutics, 2019).

What was measured:
[1] = system: MC1R, B16/F10 melanoma cells
[2] = system: MC1R, B16/F1 melanoma cells

1,4,7,10-tetraazacyclononane-1,4,7,10-tetraacetic acid-Gly-Gly-Nle-c[Asp-His-DPhe-Arg-Trp-Lys]-CONH2 (sidechain bridge or staple) [DOTA-GGNle-CycMSHhex]
MC1R binding affinity [1]: nanomolar
MC1R binding affinity [2]: nanomolar
